Experimental data published in US20230373985A1 (Origenis Gmbh, priority 2020, published 2023).

Tests used:
[1] = target: T1, wt human JAK1, catalytic site (Homo sapiens, UniProt P23458); assay: HTRF KinEASE assay, JAK1; type: biochemical; details: 2.5 μM ATP; read-out: IC50, Activity Toward JAK1
T1 construct: wt human JAK1, catalytic site; purchased ThermoFisher
In short: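 Two-step HTRF KinEASE assay: compound, kinase/biotinylated TK substrate and ATP were incubated at least 30 min at room temperature. Antibody plus streptavidin-XL665 was then added and plates were read after 60 min. Inhibition was derived from emission ratios according to the kit protocol.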

[2] = target: T2, wt human NUAK1, full length (Homo sapiens, UniProt O60285); assay: TR-FRET LanthaScreen Eu Kinase Binding Assay, NUAK1; details: read-out: IC50, Activity Toward NUAK1
T2 construct: 8 nM wt human NUAK1, full length (ThermoFisher/USA); purchased ThermoFisher
T2 sequence (O60285 1-661): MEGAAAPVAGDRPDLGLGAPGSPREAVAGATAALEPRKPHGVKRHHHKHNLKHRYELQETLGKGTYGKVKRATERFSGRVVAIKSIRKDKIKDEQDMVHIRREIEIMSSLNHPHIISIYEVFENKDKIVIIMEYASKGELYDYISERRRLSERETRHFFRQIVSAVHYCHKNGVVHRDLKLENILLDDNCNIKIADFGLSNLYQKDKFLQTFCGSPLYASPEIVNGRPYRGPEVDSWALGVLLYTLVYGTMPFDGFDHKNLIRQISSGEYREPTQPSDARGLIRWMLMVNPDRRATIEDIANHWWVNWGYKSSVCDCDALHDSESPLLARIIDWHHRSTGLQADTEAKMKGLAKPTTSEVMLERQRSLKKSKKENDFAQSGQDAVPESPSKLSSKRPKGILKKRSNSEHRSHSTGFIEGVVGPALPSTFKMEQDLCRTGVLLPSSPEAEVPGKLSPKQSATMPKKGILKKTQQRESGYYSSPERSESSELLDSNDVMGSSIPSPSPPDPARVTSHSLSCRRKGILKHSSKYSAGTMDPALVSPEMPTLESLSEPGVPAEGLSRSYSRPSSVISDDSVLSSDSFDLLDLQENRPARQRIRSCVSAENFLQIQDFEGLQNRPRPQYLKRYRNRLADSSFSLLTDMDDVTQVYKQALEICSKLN
Procedure: The basic protocol for TR-FRET LanthaScreen Eu Kinase Binding Assay inhibitor studies were performed as follows. LanthaScreen Kinase Binding Assays (ThermoFisher/USA) to evaluate inhibitors were performed by addition of 5 μL of test compound in corresponding DMSO dilutions/5 μl of kinase/antibody mixture, 5 μL of tracer into 384 well small volume plates. After incubation for 1 hour at room temperature, plates were read. Data analysis of emission ratios was according LanthaScreen Eu Kinase Binding Assay protocol.
Kinase and assay components were adjusted to final concentrations according to kit protocol. For LRRK2: 5 nM wt human LRRK2, catalytic site, or G2019S human LRRK2, catalytic site (ThermoFisher/USA), 2 nM Eu-Anti-GST Antibody, 10 nM Kinase Tracer 236 in 1× Kinase Buffer A. For NUAK1: 8 nM wt human NUAK1, full length (ThermoFisher/USA), 2 nM Eu-Anti-His Antibody, 5 nM Kinase Tracer 236 in 1× Kinase Buffer A.

[3] = target: T3, wt human TYK2, catalytic site (Homo sapiens, UniProt P29597); assay: HTRF KinEASE assay, TYK2; type: biochemical; details: 1 μM ATP; read-out: IC50, Activity Toward TYK2
T3 construct: wt human TYK2, catalytic site; purchased SignalChem
T3 sequence (P29597 897-1176 limits assumed): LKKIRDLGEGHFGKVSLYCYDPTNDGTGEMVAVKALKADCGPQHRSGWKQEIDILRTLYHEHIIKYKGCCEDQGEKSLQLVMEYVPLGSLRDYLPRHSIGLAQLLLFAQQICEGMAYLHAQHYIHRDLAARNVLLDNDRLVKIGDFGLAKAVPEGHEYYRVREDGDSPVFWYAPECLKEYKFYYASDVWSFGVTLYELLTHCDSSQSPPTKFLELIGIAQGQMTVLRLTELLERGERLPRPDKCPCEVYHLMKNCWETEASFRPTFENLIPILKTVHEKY
In short: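 HTRF KinEASE-TK readout with 1 μM biotinylated TK substrate in 1× kinase buffer, ≥30 min at room temperature, then antibody/streptavidin-XL665 detection for 60 min. TYK2 at 2 nM with 1 μM ATP; JAK2 at 1 nM with 100 μM ATP. Analysis uses emission ratios.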

[4] = target: T4, G2019S human LRRK2, catalytic site (Homo sapiens, UniProt Q5S007, G2019S); assay: TR-FRET LanthaScreen Eu Kinase Binding Assay, LRRK2 G2019S; details: LRRK2(G2019); one range stated for wt and G2019; read-out: IC50, Activity Toward LRRK2(G2019)
T4 construct: G2019S human LRRK2, catalytic site; purchased ThermoFisher
In short: (§1)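 Tracer-displacement binding: compound mixed with kinase/Eu-antibody and Kinase Tracer 236 in 1× Kinase Buffer A, 1 h at room temperature, then TR-FRET emission ratio read. LRRK2 (wt or G2019S) 5 nM with 2 nM Eu-anti-GST, 10 nM tracer; NUAK1 8 nM with 2 nM Eu-anti-His, 5 nM tracer.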

[5] = target: T5, wt human LRRK2, catalytic site (Homo sapiens, UniProt Q5S007); assay: TR-FRET LanthaScreen Eu Kinase Binding Assay, LRRK2 wt; details: one range stated for wt and G2019, read-out: IC50, Activity Toward LRRK2(Wt)
T5 construct: 5 nM wt human LRRK2, catalytic site; purchased ThermoFisher
In short: as §1

T1 sequence (P23458 875-1153 limits assumed): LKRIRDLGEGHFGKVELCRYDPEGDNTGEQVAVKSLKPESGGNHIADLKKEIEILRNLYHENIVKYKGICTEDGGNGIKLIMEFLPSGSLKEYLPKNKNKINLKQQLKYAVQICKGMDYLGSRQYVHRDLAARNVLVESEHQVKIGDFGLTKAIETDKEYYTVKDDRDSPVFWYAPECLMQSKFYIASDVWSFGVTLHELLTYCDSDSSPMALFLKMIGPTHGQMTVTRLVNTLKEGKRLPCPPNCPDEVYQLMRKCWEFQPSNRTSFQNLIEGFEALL
T5 sequence (Q5S007 970-2527 limits assumed): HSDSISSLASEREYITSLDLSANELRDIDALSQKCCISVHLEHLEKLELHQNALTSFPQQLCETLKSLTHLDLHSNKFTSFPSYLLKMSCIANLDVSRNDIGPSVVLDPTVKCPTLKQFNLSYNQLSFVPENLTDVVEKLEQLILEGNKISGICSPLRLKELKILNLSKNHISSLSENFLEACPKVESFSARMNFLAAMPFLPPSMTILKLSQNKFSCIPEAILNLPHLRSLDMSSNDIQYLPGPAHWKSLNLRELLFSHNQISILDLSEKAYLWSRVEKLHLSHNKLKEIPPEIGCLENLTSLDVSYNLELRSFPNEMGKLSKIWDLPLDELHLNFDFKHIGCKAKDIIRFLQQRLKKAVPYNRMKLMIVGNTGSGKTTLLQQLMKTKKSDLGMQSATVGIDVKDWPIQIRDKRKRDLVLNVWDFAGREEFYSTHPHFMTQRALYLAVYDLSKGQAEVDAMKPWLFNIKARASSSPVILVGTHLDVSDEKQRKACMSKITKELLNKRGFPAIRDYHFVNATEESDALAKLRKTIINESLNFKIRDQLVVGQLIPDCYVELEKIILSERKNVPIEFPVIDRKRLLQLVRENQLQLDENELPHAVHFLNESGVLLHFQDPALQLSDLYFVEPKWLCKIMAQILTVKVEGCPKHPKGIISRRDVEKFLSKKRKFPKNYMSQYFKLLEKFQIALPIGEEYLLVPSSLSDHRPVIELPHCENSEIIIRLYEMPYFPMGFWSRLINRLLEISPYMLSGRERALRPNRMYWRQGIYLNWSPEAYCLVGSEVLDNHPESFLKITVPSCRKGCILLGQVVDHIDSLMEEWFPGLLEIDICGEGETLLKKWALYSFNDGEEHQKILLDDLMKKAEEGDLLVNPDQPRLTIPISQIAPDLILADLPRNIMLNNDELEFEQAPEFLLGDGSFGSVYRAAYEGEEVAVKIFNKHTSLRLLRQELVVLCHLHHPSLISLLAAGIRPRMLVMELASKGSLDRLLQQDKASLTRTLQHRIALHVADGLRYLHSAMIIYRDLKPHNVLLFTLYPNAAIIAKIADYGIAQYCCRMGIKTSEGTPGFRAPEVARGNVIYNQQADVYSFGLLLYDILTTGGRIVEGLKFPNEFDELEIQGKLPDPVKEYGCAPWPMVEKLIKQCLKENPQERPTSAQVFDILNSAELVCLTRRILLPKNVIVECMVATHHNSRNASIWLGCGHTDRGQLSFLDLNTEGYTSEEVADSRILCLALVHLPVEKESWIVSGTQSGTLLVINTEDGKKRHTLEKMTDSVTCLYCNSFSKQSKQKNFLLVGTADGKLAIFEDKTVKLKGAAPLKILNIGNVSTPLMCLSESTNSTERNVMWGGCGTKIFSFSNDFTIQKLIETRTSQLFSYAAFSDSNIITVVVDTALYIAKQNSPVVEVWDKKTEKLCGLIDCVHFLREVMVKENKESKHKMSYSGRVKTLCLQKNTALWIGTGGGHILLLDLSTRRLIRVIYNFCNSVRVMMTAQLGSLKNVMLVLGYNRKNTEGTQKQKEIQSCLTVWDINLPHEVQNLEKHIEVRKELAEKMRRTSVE
T4 sequence (Q5S007 970-2527 G2019S limits assumed): as the sequence (Q5S007 970-2527 limits assumed) above, with G1050S counted along it

IC50 [1] | IC50 [2] | IC50 [3] | IC50 [4] | IC50 [5] | Structure (SMILES)
100 to 1000 nM | 100 to 1000 nM | 10 to 100 nM |  |  | Cc1nc2cc(Nc3cn(-c4c(F)cccc4Cl)nc3C(N)=O)ccc2n1C [compound 44, 1-(2-chloro-6-fluorophenyl)-4-((1,2-dimethyl-1H-benzo[d]imidazol-5-yl)amino)-1H-pyrazole-3-carboxamide]
10 to 100 nM | 100 to 1000 nM | < 10 nM |  |  | CN1CCCN(C(=O)c2ccc(Nc3cn(-c4c(Cl)cccc4Cl)nc3C(N)=O)cc2)CC1 [compound 91, 1-(2,6-dichlorophenyl)-4-((4-(4-methyl-1,4-diazepane-1-carbonyl)phenyl)amino)-1H-pyrazole-3-carboxamide]
10 to 100 nM | 100 to 1000 nM | < 10 nM |  |  | CN(C)CCn1cnnc1-c1ccc(Nc2cn(-c3c(Cl)cccc3Cl)nc2C(N)=O)cc1 [compound 214, 1-(2,6-dichlorophenyl)-4-((4-(4-(2-(dimethylamino)ethyl)-4H-1,2,4-triazol-3-yl)phenyl)amino)-1H-pyrazole-3-carboxamide]
100 to 1000 nM | 100 to 1000 nM | < 10 nM |  |  | CN1CCC(Oc2ccc(Nc3cn(-c4c(Cl)cccc4Cl)nc3C(N)=O)cc2)CC1 [compound 237, 1-(2,6-dichlorophenyl)-4-((4-((1-methylpiperidin-4-yl)oxy)phenyl)amino)-1H-pyrazole-3-carboxamide]
100 to 1000 nM | 100 to 1000 nM | 10 to 100 nM |  |  | CN(C)CCn1ccnc1-c1ccc(Nc2cn(-c3c(Cl)cccc3Cl)nc2C(N)=O)cc1 [compound 251, 1-(2,6-dichlorophenyl)-4-((4-(1-(2-(dimethylamino)ethyl)-1H-imidazol-2-yl)phenyl)amino)-1H-pyrazole-3-carboxamide]
100 to 1000 nM |  | 100 to 1000 nM | 100 to 1000 nM | 100 to 1000 nM | Cc1ccncc1-c1ccc(Nc2cn(-c3c(Cl)cccc3Cl)nc2C(N)=O)cn1 [compound 394, 1-(2,6-dichlorophenyl)-4-((4′-methyl-[2,3′-bipyridin]-5-yl)amino)-1H-pyrazole-3-carboxamide]
100 to 1000 nM |  | 100 to 1000 nM | 100 to 1000 nM | 100 to 1000 nM | Cc1cccnc1-c1ccc(Nc2cn(-c3c(Cl)cccc3Cl)nc2C(N)=O)cn1 [compound 395, 1-(2,6-dichlorophenyl)-4-((3′-methyl-[2,2′-bipyridin]-5-yl)amino)-1H-pyrazole-3-carboxamide]
100 to 1000 nM |  | 10 to 100 nM | 100 to 1000 nM | 100 to 1000 nM | CC(C)n1cnnc1-c1ccc(Nc2cn(-c3c(Cl)cccc3Cl)nc2C(N)=O)cn1 [compound 400, 1-(2,6-dichlorophenyl)-4-((6-(4-isopropyl-4H-1,2,4-triazol-3-yl)pyridin-3-yl)amino)-1H-pyrazole-3-carboxamide]
 | 100 to 1000 nM | 100 to 1000 nM |  |  | NC(=O)c1nn(-c2c(Cl)cccc2Cl)cc1Nc1cnc(C(=O)N2CC[C@@H](F)C2)cn1 [compound 403, (R)-1-(2,6-dichlorophenyl)-4-((5-(3-fluoropyrrolidine-1-carbonyl)pyrazin-2-yl)amino)-1H-pyrazole-3-carboxamide]
10 to 100 nM |  | < 10 nM | 100 to 1000 nM | 100 to 1000 nM | NC(=O)c1nn(-c2c(Cl)cccc2Cl)cc1Nc1ccc(-c2nncn2/C=C/F)cc1 [compound 415, (E)-1-(2,6-dichlorophenyl)-4-((4-(4-(2-fluorovinyl)-4H-1,2,4-triazol-3-yl)phenyl)amino)-1H-pyrazole-3-carboxamide]
10 to 100 nM |  | 10 to 100 nM | 100 to 1000 nM | 100 to 1000 nM | CCn1cnnc1-c1ccc(Nc2cn(-c3c(Cl)ccc(F)c3Cl)nc2C(N)=O)cc1 [compound 418, 1-(2,6-dichloro-3-fluorophenyl)-4-((4-(4-ethyl-4H-1,2,4-triazol-3-yl)phenyl)amino)-1H-pyrazole-3-carboxamide]
10 to 100 nM |  | 10 to 100 nM | 100 to 1000 nM | 100 to 1000 nM | NC(=O)c1nn(-c2c(Cl)cccc2Cl)cc1Nc1ccc(C(=O)NCCF)cc1 [compound 421, 1-(2,6-dichlorophenyl)-4-((4-((2-fluoroethyl)carbamoyl)phenyl)amino)-1H-pyrazole-3-carboxamide]
10 to 100 nM |  | < 10 nM | 100 to 1000 nM | 100 to 1000 nM | NC(=O)c1nn(-c2c(Cl)cccc2Cl)cc1Nc1ccc(C(=O)N2CC(O)C2)cc1 [compound 426, 1-(2,6-dichlorophenyl)-4-((4-(3-hydroxyazetidine-1-carbonyl)phenyl)amino)-1H-pyrazole-3-carboxamide]
< 10 nM |  | 10 to 100 nM | 100 to 1000 nM | 100 to 1000 nM | Cc1cncc2nnc(-c3ccc(Nc4cn(-c5c(Cl)cccc5Cl)nc4C(N)=O)cn3)n12 [compound 436, 1-(2,6-dichlorophenyl)-4-((6-(5-methyl-[1,2,4]triazolo[4,3-a]pyrazin-3-yl)pyridin-3-yl)amino)-1H-pyrazole-3-carboxamide]
10 to 100 nM |  | < 10 nM | 100 to 1000 nM | 100 to 1000 nM | N#Cc1cccc(F)c1-n1cc(Nc2ccc(C(=O)N3CC[C@@H](F)C3)cc2)c(C(N)=O)n1 [compound 450, (R)-1-(2-cyano-6-fluorophenyl)-4-((4-(3-fluoropyrrolidine-1-carbonyl)phenyl)amino)-1H-pyrazole-3-carboxamide]
10 to 100 nM |  | < 10 nM | 100 to 1000 nM | 100 to 1000 nM | CC1(C)CN(C(=O)c2ccc(Nc3cn(-c4c(Cl)cccc4Cl)nc3C(N)=O)cc2)C1 [compound 456, 1-(2,6-dichlorophenyl)-4-((4-(3,3-dimethylazetidine-1-carbonyl)phenyl)amino)-1H-pyrazole-3-carboxamide]
10 to 100 nM |  | < 10 nM | 100 to 1000 nM | 100 to 1000 nM | CN=S1(=O)CCN(C(=O)c2ccc(Nc3cn(-c4c(Cl)cccc4Cl)nc3C(N)=O)cc2)CC1 [compound 466, 1-(2,6-dichlorophenyl)-4-((4-(1-(methylimino)-1-oxidothiomorpholine-4-carbonyl)phenyl)amino)-1H-pyrazole-3-carboxamide]
10 to 100 nM |  | 10 to 100 nM | 100 to 1000 nM | 100 to 1000 nM | NC(=O)c1nn(-c2c(Cl)cccc2Cl)cc1Nc1ccc(-c2nnc3cncc(C(F)(F)F)n23)nc1 [compound 472, 1-(2,6-dichlorophenyl)-4-((6-(5-(trifluoromethyl)-[1,2,4]triazolo[4,3-a]pyrazin-3-yl)pyridin-3-yl)amino)-1H-pyrazole-3-carboxamide]
